Reference: patent US5482954A, “Signal transduction inhibitor triazole and diazole compounds” (priority 1994, dated 1996)

How the values were obtained:
[1] = tested on: 5R ras-transfected rat embryo fibroblasts; assay: AMF-stimulated cell motility; assay type: cell-based
Method: (§1) The cell motility assay has been described. See, Stracke et al., Biochem. Biophys. Res. Comm., 146:339-345 (1987). Cells from the A2058 human melanoma line which was maintained in subconfluent culture were harvested with trypsin-EDTA, and were allowed to recover for 1 hr at room temperature. Cells from the 5R H-ras transformed (diploid) rat embryo fibroblast line were harvested with 2 mM EDTA in PBS without divalent cations. Cells were resuspended in serum-free media containing 0.1% BSA. This DMEM/0.1% BSA was used as the control for all subsequent assays. The assays were performed in triplicate using a 48-well chemotaxis chamber with 8μ Nucleopore, type IV collagen-coated filters. The chambers were incubated at 37° C. for 4 hr, stained and placed onto glass slides with the original cell side up so that the cell pellet could be wiped from the surface. Cells that had migrated through the pores were trapped between glass and membrane and could be quantitated by laser densitometry.
(§2) Compound 1 was preincubated with the cells for various periods of time, added at the start of the assay, or added later. Additionally, compound 1 remained present during the motility assay. The cells were assayed for their motile response to AMF. AMF stimulates random and directed locomotion of 5R ras-transfected rat embryo fibroblasts and A2058 human melanoma cells. […] Cell viability determined by trypan blue exclusion averaged greater than 96%. Cells exposed to various concentrations of compound 1 were tested for their response to AMF vs. control. Percent stimulated motility (in densitometer units) is defined as: […]
(§3) (AMF stimulated-control)Compound 1 /(AMF stimulated-control)untreated

[2] = tested on: A2058 human melanoma cells; assay: AMF-stimulated cell motility; assay type: cell-based
Method: as §1, §2, §3

[3] = tested on: SKBR human breast cancer cells; assay: AMF-stimulated cell motility; assay type: cell-based; settings: overnight exposure; data not shown
OVCAR3 cells [4] = assay: Laminin-stimulated cell motility; assay type: cell-based, human; settings: 1 μg/mL, 18 hr preincubation; laminin 100 μg/mL
OVCAR3 cells [5] = assay: Type IV collagen-stimulated motility; assay type: cell-based, human; settings: data not shown
5R cells = assay: [3H]thymidine incorporation; assay type: cell-based, rat; settings: 0-10 μg/mL, 24 hr
Method: Proliferation: Two independent methods were used to determine the effect of various compounds on cellular proliferation. The first method utilized [^3 H]thymidine labelling and was performed using A2058, 5R, OVCAR3, and MDA-231 cells. Because the potential effect of compound 1 on thymidine metabolism was unknown, a clonogenic assay was also used. This assay utilized crystal violet nuclear staining.
For the thymidine incorporation assay, an initial aliquot of 15,000 cells was plated in 96 well plates. The cells were grown to subconfluence, serum-starved, then fed with serum-containing media to which incremental doses of compound 1 (0-10 μg/mL) were added. After 24 hr, the cells were pulsed with [^3 H]thymidine (0.5 μCi/well) for 2 hr. Trichloroacetic acid was added to precipitate […] [^3 H]thymidine. After removal, ice cold ethanol/diethyl ether was added to precipitate cellular nucleic acids. The residue was solubilized with 0.2M NaOH and [^3 H]thymidine incorporation was determined by liquid scintillation counting. Inhibition of thymidine uptake was calculated as a percent of untreated control cell incorporation of labelled thymidine. As FIG. 4 indicates, de novo DNA synthesis was inhibited in all of the tumor cell lines. Maximal inhibition (80%) was found with the 5R cells.

CHOm5 cells = assay: Calcium ionophore A23187-stimulated 45Ca2+ influx; assay type: cell-based, Chinese hamster; settings: Cricetulus griseus; FIG. 13, A23187
Method: Calcium influx was determined using two methods. The first method involved the use of ^45 Ca^2+, while the second method utilized a fluorescent intracellular calcium chelator, Fura-2. The method using Fura-2 is semi-quantitative and is preferred for kinetic analysis and screening whereas the ^45 Ca^2+ method is quantitative.
CHOm5 cells in monolayer culture were washed free of serum-containing media and incubated with either carbachol or the calcium ionophore A23187 (from Molecular Probes, Eugene, Oreg., USA) in the presence of ^45 Ca^2+ and defined buffer (E2 medium with 0.1 mM MgCl2 and 1.0 mM CaCl2). After incubation for 5 min, the radioactive buffer was rapidly and repeatedly washed off with media containing LaCl3, a competitor of calcium efflux. The cell monolayer was solubilized and the calcium uptake was determined by scintillation counting.

[6] = tested on: HT-29 human colon cancer cells; assay: Experimental pulmonary metastasis, tumor cells pretreated in vitro; assay type: in vivo, nude mice; settings: cells treated 10 μg/mL, 24 hr; day 28
Method: Compound 1 was also tested for efficacy against HT-29 human colon cancer cells. HT-29 tumor cells were incubated with compound 1, 10 μg/mL, or DMSO vehicle (0.05%) for 24 hr. After harvesting and washing, one million cells were injected into the lateral tail vein of nude mice. Animals were humanely sacrificed on day 28, the lungs were inflated and fixed, and the number of pulmonary metastases were then counted. Observations on the size of the metastases were also made.

[7] = tested on: A2058 human melanoma tumors; assay: Oral treatment of subcutaneous xenografts; assay type: in vivo, nude mice
Method: This example illustrates the antitumor effect of compound 1 when administered orally to mice, following either subcutaneous inoculation of the mice with A2058 cells at two flank sites, intraperitoneal injection of OVCAR3 cells, or tail vein inoculation with 5R cells.
The antitumor effect of compound 1 was tested on groups of 10 nude mice which had been inoculated subcutaneously at two flank sites with 10^6 A2058 cells. Measureable tumors were observed within 14 days. On day 3 following tumor introduction, compound 1, diluted in PEG-400, or PEG-400 vehicle alone, was administered by gavage. Animals were monitored daily for toxicity, behavior, and extent of tumor. Weights and bidirectional measurements of A2058 tumor masses were determined three times per week.

OVCAR3 cells [8] = assay: Oral treatment of intraperitoneal xenografts; assay type: in vivo, nude mice
[9] = Cell viability by trypan blue exclusion; assay type: cell-based; settings: a2058 and 5r cells; average
Method: as §2

[10] = tested on: cell adhesion to fibronectin; assay: Cell adhesion to fibronectin; assay type: cell-based; settings: data not shown
Method: Cells were preincubated with compound 1 (0.03-10 μg/mL) for periods of 2 to 48 hr prior to the adhesion assay. In addition, compound 1 remained present during the assay. […] Maximal inhibition of adhesion was observed following overnight exposure of the cells to compound 1.

[11] = tested on: T-type voltage gated calcium channels; settings: Hupe, et al.; cited from earlier work
[12] = overnight preincubation, AMF stimulation

Structure (SMILES): NC(=O)c1nnn(Cc2cc(Cl)c(C(=O)c3ccc(Cl)cc3)c(Cl)c2)c1N [Compound 1]
- inhibition of AMF-stimulated tumor cell motility ([1]; 0.03-10 μg/ml): inhibited AMF-stimulated tumor cell motility in a dose dependent manner
- decrease in stimulated motility [1, 12]: up to 55%
- inhibition of AMF-stimulated tumor cell motility ([2]; 0.03-10 μg/ml): inhibited AMF-stimulated tumor cell motility in a dose dependent manner
- inhibition of motility, combination of 1 and PT vs either alone ([2]; 1 (1 μg/ml) + PT (0.1 μg/ml), data not shown, cell line not stated): did not result in greater inhibition of motility than either drug alone
- decrease in stimulated motility [2, 12]: up to 55%
- inhibition of motility ([2]; same dose as PI assay (1.0 μg/mL)): 45%
- motile response to AMF [3]: inhibited
- inhibition of spontaneous and laminin-stimulated motility (OVCAR3 cells [4]): inhibited both spontaneous motility
- motility due to type IV collagen stimulation (OVCAR3 cells [5]): inhibited motility
- maximal inhibition of de novo DNA synthesis ([3H]thymidine incorporation) (5R cells): 80%
- IC50 (CHOm5 cells): 359 ± 11 nM
- inhibition of pulmonary colonization [6]: 96%
- size of pulmonary metastases [6]: marked reduction in size
- gross toxicity ([7]; 35 days of administration, and at necropsy): No gross toxicity
- tumor necrosis ([7]; histologic evaluation of necropsy specimens): Marked necrosis
- tumor growth ([7]; oral gavage from day 3): Significant growth arrest
- tumor incidence ([7]; oral gavage from day 3): marked delay in tumor incidence
- time to development of ascites (OVCAR3 cells [8]; 100 mg/kg daily oral): Statistically significant differences
- tumor necrosis and pulmonary micrometastases (histology) (OVCAR3 cells [8]; 100 mg/kg daily oral): induced tumor necrosis and inhibition of pulmonary micrometastases
- volume of ascites at necropsy (OVCAR3 cells [8]; 100 mg/kg daily oral): Statistically significant differences
- progression of OVCAR3 xenografts (OVCAR3 cells [8]; FIG. 16B, 100 mg/kg by gavage): inhibits progression of OVCAR3 xenografts
- viability [9]: > 96%
- cell adhesion to fibronectin [10]: decreased cell adhesion
- inhibition of T-type voltage gated calcium channels [11]: inhibit
